Measurements as given in ChEMBL document CHEMBL1201862, “PubChem BioAssay data set” (2004).
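Tested at 5 concentrations; 48 h exposure; 96-well plates; endpoints linearly interpolated, else capped at highest concentration. At the GI50, growth is halved.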 Active and inactive are the calls of the source. Rule as the data show it: active = GI50 up to about 1.1 µM and inactive = higher.

Experiments:
Experiment in all cases: inhibition of tumour cell growth, NCI panel, 48 h
[1] = tested on: CAKI-1
[2] = tested on: M14
[3] = tested on: UO-31
[4] = tested on: HCT-116
[5] = tested on: Malme-3M
[6] = tested on: OVCAR-3
[7] = tested on: NCI-H522
[8] = tested on: SK-MEL-2
[9] = tested on: Hs-578T
[10] = tested on: RPMI-8226
[11] = tested on: COLO 205
[12] = tested on: OVCAR-4
[13] = tested on: BT-549
[14] = tested on: SF-539
[15] = tested on: SNB-19
[16] = tested on: HT-29
[17] = tested on: T47D
[18] = tested on: NCI/ADR-RES
[19] = tested on: ACHN
[20] = tested on: OVCAR-5

Measured: GI50

O=C1NC(=O)C2C3C=CC(C12)C1C2C(=O)NC(=O)C2C31 (stereo not given)
inactive: [1] 203 µM | [2] 240 µM | [3] 211 µM | [4] 211 µM | [5] 187 µM | [6] 242 µM | [7] 151 µM | [8] 173 µM | [9] 100 µM | [10] 185 µM | [11] 82.4 µM | [12] 223 µM | [13] > 250 µM | [14] 191 µM | [15] 149 µM | [16] 177 µM | [17] > 250 µM | [18] > 250 µM | [19] > 250 µM | [20] > 250 µM

Fc1ccc2c(c1)nc1n2C(c2c(F)cccc2F)SC1 (stereo not given)
inactive: [1] 32.5 µM | [2] 49.8 µM | [3] 25 µM | [4] 25.6 µM | [5] 55.1 µM | [6] 28.6 µM | [7] 30.1 µM | [8] > 100 µM | [9] 47 µM | [10] 78.9 µM | [11] 80.2 µM | [12] 48.2 µM | [13] 42.5 µM | [14] > 100 µM | [15] 45.4 µM | [16] 31.6 µM | [17] 31 µM | [18] 27.1 µM | [19] > 100 µM | [20] 98.6 µM

O=C(NC1CCN(Cc2ccccc2)CC1)c1cccc(I)c1
inactive: [1] 19.7 µM | [2] 17.2 µM | [3] 17 µM | [4] 15.3 µM | [5] 17.1 µM | [6] 40 µM | [7] 17.8 µM | [8] 18.7 µM | [9] 29 µM | [10] 12.5 µM | [11] 17.6 µM | [12] 58.2 µM | [13] 42.5 µM | [14] 22.8 µM | [15] 35 µM | [16] 19.5 µM | [17] 24.1 µM | [18] 31.8 µM | [19] 52.4 µM | [20] 30.3 µM

CN1CCN(c2ccncc2S(=O)(=O)N2CCN(C)CC2)CC1
inactive: [1] > 100 µM | [2] > 100 µM | [3] > 100 µM | [4] > 100 µM | [5] > 100 µM | [6] > 100 µM | [7] > 100 µM | [8] > 100 µM | [9] > 100 µM | [10] > 100 µM | [11] > 100 µM | [12] > 100 µM | [13] > 100 µM | [14] > 100 µM | [15] > 100 µM | [16] > 100 µM | [17] > 100 µM | [18] > 100 µM | [19] > 100 µM | [20] > 100 µM

CC(C)C(=O)/C=C/c1c(Cl)cccc1Cl
inactive: [1] 3.47 µM | [2] 2.61 µM | [3] 4.3 µM | [4] 1.64 µM | [5] 4.45 µM | [6] 2.41 µM | [7] 1.19 µM | [8] 2.25 µM | [9] 2.35 µM | [10] > 100 µM | [11] 10.4 µM | [12] 3.4 µM | [13] 2.64 µM | [14] 3.04 µM | [15] 10.8 µM | [16] 2.84 µM | [17] 2.95 µM | [18] 3.04 µM | [19] 4.74 µM | [20] 3.21 µM

Oc1nc(S)nc2c1CN(CCCN1CCOCC1)CN2
inactive: [1] 30.4 µM | [2] 25.5 µM | [3] 36.8 µM | [4] 34.4 µM | [5] 19.7 µM | [6] 38.5 µM | [7] 21.2 µM | [8] 19.9 µM | [9] > 100 µM | [10] 26.9 µM | [11] 18.3 µM | [12] 38.5 µM | [13] 75.2 µM | [14] 25.5 µM | [15] > 100 µM | [16] 35.9 µM | [17] 35.4 µM | [18] 37.8 µM | [19] 29.2 µM | [20] > 100 µM

CCOC(=O)C1=CC(C)(C(=O)OCC)Nc2c(nc(SC)[nH]c2=O)N1 (stereo not given)
inactive: [1] > 10 µM | [2] > 10 µM | [3] > 10 µM | [4] > 10 µM | [5] > 10 µM | [6] > 10 µM | [7] > 10 µM | [8] > 10 µM | [9] > 10 µM | [10] > 10 µM | [11] > 10 µM | [12] > 10 µM | [13] > 10 µM | [14] > 10 µM | [15] > 10 µM | [16] > 10 µM | [17] > 10 µM | [18] > 10 µM | [19] > 10 µM | [20] > 10 µM

CCOC(=O)/C(C#N)=C/N(CC)/N=C/c1ccccc1
inactive: [1] > 100 µM | [2] > 100 µM | [3] > 100 µM | [4] > 100 µM | [5] > 100 µM | [6] > 100 µM | [7] > 100 µM | [8] > 100 µM | [9] 54.7 µM | [10] > 100 µM | [11] > 100 µM | [12] > 100 µM | [13] > 100 µM | [14] 54.7 µM | [15] > 100 µM | [16] > 100 µM | [17] > 100 µM | [18] 60.4 µM | [19] > 100 µM | [20] > 100 µM

COC(=O)c1ccc2c(c1)sc1nc(-c3ccc(OC)cc3)cn12
inactive: [1] > 100 µM | [2] > 100 µM | [3] > 100 µM | [4] > 100 µM | [5] > 100 µM | [6] > 100 µM | [7] 62.2 µM | [8] > 100 µM | [9] 37.3 µM | [10] 32.4 µM | [11] 31.9 µM | [12] > 100 µM | [13] 43.7 µM | [14] 59.8 µM | [15] 66.5 µM | [16] 83.4 µM | [17] 35.2 µM | [18] > 100 µM | [19] > 100 µM | [20] > 100 µM

CC1CC[C@@]2(OC1)O[C@H]1C[C@H]3[C@@H]4CC[C@H]5C[C@@H](OC6OC(CO)C(OC7OC(CO)C(OC8OC(CO)C(O)C(OC9OC(C)C(OC%10OC(C)C(O)C(O)C%10O)C(O)C9O)C8OC8OCC(O)C(O)C8O)C(O)C7O)C(O)C6O)CC[C@]5(C)[C@H]4CC(=O)[C@]3(C)[C@H]1[C@@H]2C (stereo not given in full)
inactive: [1] 15.6 µM | [2] 20.8 µM | [3] 19.2 µM | [4] 23.4 µM | [5] 22.4 µM | [6] 22.6 µM | [7] 23.7 µM | [8] 16.1 µM | [9] 24.2 µM | [10] 16.2 µM | [11] 16.5 µM | [12] 16.1 µM | [13] 20.9 µM | [14] 14.8 µM | [15] 20.5 µM | [16] 36 µM | [17] 19.3 µM | [18] 23.7 µM | [19] 17.2 µM | [20] 20.8 µM
